According to patent publication US20100056477A1, “FUNGICIDAL MIXTURES OF AMIDINYLPHENYL COMPOUNDS” (Bayer CropScience AG, priority 2006, published 2010):
One block for each compound: values may come before it.

Columns and labels:
[1] = LogP (HCOOH)
[2] = test system: Botrytis cinerea; assay: Botrytis test (beans)/protective; type: in vivo; conditions: single active compound, protective, evaluated 2 days after inoculation
Protocol: Solvent: 24.5 parts by weight of acetone • 24.5 parts by weight of dimethylacetamide
(§1) Emulsifier: 1 part by weight of alkylaryl polyglycol ether
To produce a suitable preparation of active compound, 1 part by weight of active compound is mixed with the stated amounts of solvent and emulsifier, and the concentrate is diluted with water to the desired concentration.
To test for protective activity, young plants are sprayed with the preparation of active compound. After the spray coating has dried on, 2 small pieces of agar covered with growth of Botrytis cinerea are placed on each leaf. The inoculated plants are placed in a darkened chamber at 20° C. and a relative atmospheric humidity of 100%.
2 days after the inoculation, the size of the lesions on the leaves is evaluated. 0% means an efficacy which corresponds to that of the control, while an efficacy of 100% means that no disease is observed.

[3] = test system: Leptosphaeria nodorum; assay: Leptosphaeria nodorum test (wheat)/protective; type: in vivo; conditions: single active compound, 125 ppm, protective, evaluated 10 days after inoculation
Protocol: (§2) Solvent: 50 parts by weight of n,n-dimethylacetamid
as §1
(§3) To produce a suitable preparation of active compound, 1 part by weight of active compound or active compound combination is mixed with the stated amounts of solvent and emulsifier, and the concentrate is diluted with water to the desired concentration.
(§4) To test for protective activity, young plants are sprayed with a preparation of active compound or active compound combination at the stated rate of application. After the spray coating has been dried, the plants are sprayed with a spore suspension of Leptosphaeria nodorum. The plants remain for 48 hours in an incubation cabinet at 20° C. and a relative atmospheric humidity of 100%.
(§5) The plants are placed in a greenhouse at a temperature of approximately 15° C. and a relative atmospheric humidity of approximately 80%.
The test is evaluated 10 days after the inoculation. 0% means an efficacy which corresponds to that of the control, while an efficacy of 100% means that no disease is observed.

[4] = test system: Septoria tritici; assay: Septoria tritici test (wheat)/protective; type: in vivo; conditions: single active compound, rate of application 125 ppm, protective, evaluated 20 days after inoculation
Protocol: as §2, §1, §3
as §4, with “test the” for “test for”, “of Septoria tritici.” for “of Leptosphaeria nodorum.”, “hours at 20° C. and then 60 hours at 15° C.” for “hours”, “at” for “at 20° C. and”
as §5
The test is evaluated 20 days after inoculation. 0% means an efficacy which corresponds to that of the control, while an efficacy of 100% means that no disease is observed.

chromatographic logP ([1]; HCOOH): 2.61
SMILES: Cc1cc(Br)c(C=O)cc1[N+](=O)[O-] [2-bromo-4-methyl-5-nitrobenzaldehyd, 2-bromo-4-methyl-5-nitrobenzaldehyde]

SMILES: Cc1cc(OCCC[Si](C)(C)C)c(C(F)F)cc1N [5-(difluoromethyl)-2-methyl-4-[3-(trimethylsilyl)propoxy]aniline]
chromatographic logP ([1]; HCOOH (formic acid)): 3.8

SMILES: CCN(C)/C=N/c1cc(C(F)(F)F)c(OCCC[Si](C)(C)C)cc1C [(1-37), N-[5-trifluoro-methyl-2-methyl-4-[3-(trimethylsilyl)propoxyl]phenyl]-N-ethyl-N-methyl-methanimidamide]
Efficacy in % ([2]; 10 ppm): 0%
Efficacy in % ([2]; 100 ppm): 23%
Efficacy in % a.e. (actual efficacy) [3]: 92%
Efficacy in % a.e. (actual efficacy) [4]: 30%

SMILES: CCN(C)/C=N/c1cc(C(F)F)c(OCCC[Si](C)(C)C)cc1C [(1-42), N′-{5-(difluoromethyl)-2-methyl-4-[3-(trimethylsilyl)propoxy]phenyl}-N-ethyl-N-methylimidoformamide]
Efficacy in % ([2]; 10 ppm): 0%
Efficacy in % ([2]; 100 ppm): 29%
chromatographic logP ([1]; HCOOH (formic acid)): 2.81

SMILES: Cn1cc(C(=O)Nc2ccccc2C2CC2C2CC2)c(C(F)F)n1 (centres unmarked) [(b-1), reference compound]
Efficacy in % ([2]; 100 ppm): 38%
Efficacy in % a.e. (actual efficacy) [4]: 10%

SMILES: Cn1cc(C(=O)Nc2ccccc2-c2ccc(C#CC(C)(C)C)cc2)c(C(F)F)n1 [(b-5), reference compound]
Efficacy in % ([2]; 10 ppm): 80%
Efficacy in % a.e. (actual efficacy) [3]: 67%

SMILES: CC(C)(C)C#Cc1ccc(-c2ccccc2NC(=O)c2cccnc2Cl)cc1 [(b-7)]
Efficacy in % a.e. (actual efficacy) [3]: 67%

SMILES: CC(C)[C@@H]1C2CCC1c1c(NC(=O)c3cn(C)nc3C(F)F)cccc12 (some centres unmarked) [(b-17)]
Efficacy in % a.e. (actual efficacy) [4]: 30%

SMILES: N#Cc1c[nH]cc1-c1cccc2c1OC(F)(F)O2 [(b-19)]
Efficacy in % a.e. (actual efficacy) [4]: 30%

SMILES: Cc1cc(OCCC[Si](C)(C)C)c(C(F)F)cc1[N+](=O)[O-] [{3-[2-(difluoromethyl)-5-methyl-4-nitrophenoxy]propyl}(trimethyl)silane]
chromatographic logP ([1]; HCOOH): 5.44
